Reference: patent publication US8344028B2, “Gamma-amino-butyric acid derivatives as GABAB receptor ligands” (XenoPort, Inc., priority 2009, dated 2013)

What was measured:
[1] = target: T1, recombinant human GABABR1a2 (Homo sapiens, UniProt Q9UBS5); experiment: Ca2+ assay for determining GABAB receptor agonist activity; type: cell-based; details: cells expressing recombinant human GABABR1a2
T1 construct: expressed in transfected cells; host or cells: HEK cells
Description: The following procedure was used to determine the GABAB receptor agonist activity of a compound as reflected by activation of Ca^2+ signaling. HEK TREx cells expressing GABABR1a2 under tetracycline induction control, and Gqi chimeric protein (expressed constitutively), allowing GABABR coupling through the Ca^2+ signaling pathway were used in the experiments.
Cells were seeded in media containing tetracycline overnight at 100,000 cells/well, in black, clear-bottom, 96-well plates. The following morning, cells were washed twice with 100 μL HBSS buffer per well. Fluorescent Ca^2+ indicator dye was prepared using the materials and procedure described in the F362056 Fluo-4 NW Calcium Assay Kit (Invitrogen, Carlsbad, Calif.). Ten (10) mL of kit buffer and 100 μl of kit Probenecid were added to individual kit dye vials, and rolled back and forth several times to dissolve the dye. Cells were then loaded into the dye solution at 50 μL per well. The cells and dye were incubated for 30 min at 37° C., and then incubated for an additional 30 min at room temperature in the dark. Test compounds are dissolved in HBSS buffer at twice final concentration. Duplicate wells were used for each unique condition. Solution containing the test compound was added to the wells using a FLEXStation II (Molecular Devices, Sunnyvale, Calif.). Using the instrument in kinetic mode in which each well was read every 2 sec over a total collection time of 50 sec fluorescence was measured using an excitation wavelength 494 nm and a detection wavelength of 516 nm. A normalized fluorescence value for each well was calculated using the following procedure. The difference in fluorescence at 35 sec (usually representing maximal response) and at 15 sec (a time point prior to addition of test compounds) was calculated, divided by the fluorescence at 15 sec, and the result multiplied by 100. The final value represented the percent increase in fluorescence relative to the fluorescence at 15 sec. Data was analyzed using standard procedures.

[2] = target: T2, GABAB receptor (Rattus norvegicus, UniProt Q9Z0U4); experiment: [3H]CGP54626 rat brain GABAB receptor binding assay; details: [3H]CGP54626 rat brain binding assay
T2 construct: from tissue; host or cells: rat cerebral cortex membranes
T2 sequence (Q9Z0U4 20-960): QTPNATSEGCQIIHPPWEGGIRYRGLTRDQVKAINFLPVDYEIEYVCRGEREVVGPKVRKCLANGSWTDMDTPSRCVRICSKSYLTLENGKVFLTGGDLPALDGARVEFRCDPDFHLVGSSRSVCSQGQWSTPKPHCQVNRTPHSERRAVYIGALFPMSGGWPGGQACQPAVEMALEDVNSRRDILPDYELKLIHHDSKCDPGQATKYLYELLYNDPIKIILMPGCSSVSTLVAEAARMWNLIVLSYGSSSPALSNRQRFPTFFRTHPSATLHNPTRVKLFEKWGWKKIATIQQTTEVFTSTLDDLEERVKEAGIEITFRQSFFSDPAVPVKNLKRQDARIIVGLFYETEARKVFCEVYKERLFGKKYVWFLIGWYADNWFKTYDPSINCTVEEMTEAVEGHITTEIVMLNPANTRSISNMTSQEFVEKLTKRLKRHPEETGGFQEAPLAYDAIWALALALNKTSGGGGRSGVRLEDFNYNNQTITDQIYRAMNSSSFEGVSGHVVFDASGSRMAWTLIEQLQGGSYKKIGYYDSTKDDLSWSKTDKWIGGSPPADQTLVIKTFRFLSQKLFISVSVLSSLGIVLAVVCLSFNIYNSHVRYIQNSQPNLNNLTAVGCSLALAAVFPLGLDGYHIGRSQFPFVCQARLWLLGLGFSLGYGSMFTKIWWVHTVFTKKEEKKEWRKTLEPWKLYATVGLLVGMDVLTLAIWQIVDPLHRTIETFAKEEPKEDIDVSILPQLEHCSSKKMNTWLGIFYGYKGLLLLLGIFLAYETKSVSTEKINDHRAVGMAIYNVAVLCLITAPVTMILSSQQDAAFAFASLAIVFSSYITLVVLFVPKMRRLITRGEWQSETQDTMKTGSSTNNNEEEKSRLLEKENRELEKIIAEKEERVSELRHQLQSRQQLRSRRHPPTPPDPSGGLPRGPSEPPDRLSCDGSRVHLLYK
T2 sequence (O88871 41-940 partner): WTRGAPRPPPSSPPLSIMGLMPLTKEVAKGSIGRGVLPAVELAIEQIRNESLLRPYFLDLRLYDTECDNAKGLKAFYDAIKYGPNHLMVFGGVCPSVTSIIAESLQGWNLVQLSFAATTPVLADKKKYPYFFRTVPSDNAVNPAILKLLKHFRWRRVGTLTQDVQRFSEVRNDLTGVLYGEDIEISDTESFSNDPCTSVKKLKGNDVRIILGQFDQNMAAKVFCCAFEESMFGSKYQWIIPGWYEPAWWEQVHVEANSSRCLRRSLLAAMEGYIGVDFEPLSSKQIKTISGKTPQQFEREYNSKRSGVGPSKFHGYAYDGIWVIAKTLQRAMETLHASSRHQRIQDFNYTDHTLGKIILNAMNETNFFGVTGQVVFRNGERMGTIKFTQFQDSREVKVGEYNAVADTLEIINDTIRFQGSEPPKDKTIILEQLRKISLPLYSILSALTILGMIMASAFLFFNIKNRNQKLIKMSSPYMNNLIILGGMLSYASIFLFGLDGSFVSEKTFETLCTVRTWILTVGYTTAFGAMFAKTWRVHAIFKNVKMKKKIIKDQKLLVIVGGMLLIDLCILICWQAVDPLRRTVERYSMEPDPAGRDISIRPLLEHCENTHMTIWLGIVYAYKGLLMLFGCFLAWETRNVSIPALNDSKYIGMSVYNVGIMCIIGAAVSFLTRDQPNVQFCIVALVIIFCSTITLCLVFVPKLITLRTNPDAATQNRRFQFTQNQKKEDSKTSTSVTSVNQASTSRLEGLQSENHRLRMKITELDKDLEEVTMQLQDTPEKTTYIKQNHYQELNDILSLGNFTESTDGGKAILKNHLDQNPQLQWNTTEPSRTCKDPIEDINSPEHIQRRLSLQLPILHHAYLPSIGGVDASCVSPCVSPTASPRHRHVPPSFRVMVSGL
Description: An assay using rat cerebral cortex membranes was used to determine the affinity of GABAB receptor ligands for the GABAB receptor.
An assay buffer of 50 mM Tris pH 7.4 was prepared with 100 μM of isoguvacine, to block GABAA interactions. The assay buffer with isoguvacine was used for dilution of membranes, compounds, and radiolabel.
Rat cerebral cortex membranes were diluted in assay buffer at 1 mg/mL and aliquoted into a 96-well plate at 900 μL/well. Buffer or test compound were added at 20-times final concentration in the buffer at 50 μL/well. Membranes and test compounds or buffer were incubated for 10 min. at room temperature. Radiolableled [S—(R*,R*)]-[3-[[1-(3,4-dichlorophenyl)ethyl]amino]-2-hydroxypropyl](cyclohexylmethyl) phosphinic acid (CGP54626) was then added at 50 μL/well in the buffer at 1-10 nM concentration in 50 μl. The mixture was incubated for 15 min. at room temperature. The assay mixture was filtered using Brandell filtration apparatus and GFB filters, washed twice with 3 mL of 4° C., 50 mM Tris pH 7.4, buffer without isoguvacine. The filters were then dried at room temperature and the dried filters punched out and placed in individual vials. Three (3) mL of scintillation fluid was added to each vial and the radiolabel counted on the scintillation counter. The inverse amount of radiolabel was indicative of binding of a test compound to the GABAB receptor.

[3] = target: GABAB receptor (Homo sapiens, UniProt Q9UBS5); experiment: GABAB receptor agonist or partial agonist activity by binding, electrophysiology, cAMP and/or Ca2+ assay methods (Examples 83-86); type: cell-based
Sequence of GABAB receptor (Homo sapiens, UniProt Q9UBS5) (Q9UBS5 20-961): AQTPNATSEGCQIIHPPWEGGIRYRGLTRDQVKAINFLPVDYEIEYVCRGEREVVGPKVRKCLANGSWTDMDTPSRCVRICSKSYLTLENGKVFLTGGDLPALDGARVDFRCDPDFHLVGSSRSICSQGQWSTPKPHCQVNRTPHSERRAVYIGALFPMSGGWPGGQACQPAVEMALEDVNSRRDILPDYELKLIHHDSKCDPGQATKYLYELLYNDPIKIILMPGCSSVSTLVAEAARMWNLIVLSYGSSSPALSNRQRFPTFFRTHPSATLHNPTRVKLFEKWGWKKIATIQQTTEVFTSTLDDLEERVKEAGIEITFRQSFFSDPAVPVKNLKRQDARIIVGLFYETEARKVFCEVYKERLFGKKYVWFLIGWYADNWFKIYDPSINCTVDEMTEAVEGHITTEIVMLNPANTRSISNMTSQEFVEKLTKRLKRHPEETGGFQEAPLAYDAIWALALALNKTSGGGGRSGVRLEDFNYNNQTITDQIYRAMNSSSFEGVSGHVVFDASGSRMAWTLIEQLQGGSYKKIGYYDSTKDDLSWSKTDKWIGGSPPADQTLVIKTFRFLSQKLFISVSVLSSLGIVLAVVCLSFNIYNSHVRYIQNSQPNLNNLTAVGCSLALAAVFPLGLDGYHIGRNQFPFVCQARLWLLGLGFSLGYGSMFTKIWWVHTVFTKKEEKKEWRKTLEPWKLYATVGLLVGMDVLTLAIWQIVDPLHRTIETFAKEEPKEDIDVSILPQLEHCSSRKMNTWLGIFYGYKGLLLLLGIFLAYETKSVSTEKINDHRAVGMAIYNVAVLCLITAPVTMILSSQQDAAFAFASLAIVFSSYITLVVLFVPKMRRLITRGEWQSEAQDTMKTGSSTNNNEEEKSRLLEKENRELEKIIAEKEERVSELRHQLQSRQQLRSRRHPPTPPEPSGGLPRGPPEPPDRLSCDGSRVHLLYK
Sequence of GABAB receptor (Homo sapiens, UniProt Q9UBS5) (O75899 42-941 partner): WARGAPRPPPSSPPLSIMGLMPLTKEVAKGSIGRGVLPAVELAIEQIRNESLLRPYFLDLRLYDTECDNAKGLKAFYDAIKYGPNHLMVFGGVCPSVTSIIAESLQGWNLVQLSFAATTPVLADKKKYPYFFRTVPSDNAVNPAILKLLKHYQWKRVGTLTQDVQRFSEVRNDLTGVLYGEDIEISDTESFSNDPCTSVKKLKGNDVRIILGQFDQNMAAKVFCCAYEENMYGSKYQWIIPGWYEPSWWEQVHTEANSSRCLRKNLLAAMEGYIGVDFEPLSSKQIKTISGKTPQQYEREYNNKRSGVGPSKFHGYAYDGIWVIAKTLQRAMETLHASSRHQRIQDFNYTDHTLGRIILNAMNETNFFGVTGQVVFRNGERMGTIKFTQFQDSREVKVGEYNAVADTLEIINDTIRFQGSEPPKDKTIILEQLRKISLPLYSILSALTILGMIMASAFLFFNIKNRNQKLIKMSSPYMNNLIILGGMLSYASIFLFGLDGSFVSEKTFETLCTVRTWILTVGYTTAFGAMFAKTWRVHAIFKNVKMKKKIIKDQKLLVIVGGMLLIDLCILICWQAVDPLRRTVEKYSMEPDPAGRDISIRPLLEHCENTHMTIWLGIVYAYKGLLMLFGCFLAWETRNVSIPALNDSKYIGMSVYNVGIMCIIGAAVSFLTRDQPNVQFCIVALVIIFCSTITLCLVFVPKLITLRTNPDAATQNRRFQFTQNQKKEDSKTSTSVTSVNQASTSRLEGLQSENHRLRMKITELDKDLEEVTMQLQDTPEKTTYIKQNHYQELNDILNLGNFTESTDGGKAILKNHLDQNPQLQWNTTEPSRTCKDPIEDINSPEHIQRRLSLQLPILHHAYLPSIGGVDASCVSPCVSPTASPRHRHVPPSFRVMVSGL
Method in brief: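 Binding: rat cortex membranes in 50 mM Tris pH 7.4 with 100 μM isoguvacine were preincubated 10 min at RT with compound, then radiolabeled CGP54626 (1-10 nM) was added; filtered and scintillation-counted. cAMP: GABAB R1a2 HEK cells, 1 h RT with 100 μM forskolin, chemiluminescence.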

[4] = target: T1, recombinant human GABABR1a2; experiment: cAMP assay for determining GABAB receptor agonist activity; type: cell-based; details: cells expressing recombinant human GABABR1a2; read-out: cAMP EC50
Description: The following procedure was used to determine the level of intracellular cAMP. Recombinant HEK cells expressing the GABAB R1a2 receptor were used in the experiments. cAMP levels were measured using a cAMP XS^+ HitHunter™ Chemiluminescence Assay Kit (90-0075-02, GE Healthcare Biosciences Corp.). Cells were seeded overnight at 5,000 cells per well, in black, clear bottom 96-well plates. The following morning, cells were washed twice with 100 μL PBS per well. Forskolin was weighed out and dissolved in DMSO to a final concentration 100 mM. One-hundred (100) μM forskolin solutions were prepared in PBS with and without test compound at 1-times final concentration. Thirty (30) μL of the test solutions were added to the wells and incubated for 1 h at room temperature. The cAMP concentration was determined according to the protocol described in the cAMP assay kit, maintaining the plate at room temperature and in the dark. Two hours after the final kit reagent was added, the plate bottom was covered with black tape, and the plate read using a 1450 MicroBeta Trilux microplate scintillation and luminescence counter (PerkinElmer, Waltham, Mass.). Each well was read for 6 seconds. The untransformed data was then analyzed.

[5] = Bioavailability following oral administration to rats; details: rat, in vivo
Description: Rats were obtained commercially and were pre-cannulated in the jugular vein. Animals were conscious at the time of the experiment. All animals were fasted overnight and until 4 hours post-dosing of a compound.
Rat blood samples (0.3 mL/sample) were collected from all animals prior to dosing and at different time-points up to 24 h post-dose into tubes containing EDTA. Two aliquots (100 μL each) were quenched with 300 μL methanol and stored at −20° C. prior to analysis.
To prepare analysis standards, 90 μL of rat blood was quenched with 300 μL methanol followed by 10 μL of spiking standard and/or 20 μL of internal standard. The sample tubes were vortexed for at least 2 min and then centrifuged at 3400 rpm for 20 min. The supernatant was then transferred to an injection vial or plate for analysis by LC-MS-MS.
To prepare samples for analysis, 20 μL of internal standard was added to each quenched sample tube. The sample tubes were vortexed for at least 2 min and then centrifuged at 3400 rpm for 20 min. The supernatant was then transferred to an injection vial or plate for analysis by LC-MS-MS.
LC/MS/MS analysis was performed using an API 2000 or API 4000 mass spectrometer equipped with a Shimadzu and or Agilent HPLC system are used for determination concentration of compounds in rat blood. A Varian Polaris C18, 3μ 50×4.6 mm column was used. 0.1% Formic acid in water and acetonitrile were applied as the mobile phase. Runs were 4.0 min. […] L-4-Chlorophenylalanine was used as an internal standard at m/z 200.00/154.00.
Non-compartmental analysis was performed using WinNonlin software (v.3.1 Professional Version, Pharsight Corporation, Mountain View, Calif.) on individual animal profiles. […]
The oral bioavailability (F %) of a compound was determined by comparing the area under the compound concentration vs time curve (AUC) following oral administration of a prodrug of a GABAB ligand with the AUC of the compound concentration vs time curve following intravenous administration of the GABAB ligand on a dose normalized basis.

[6] = system: S. murinus (house musk shrew); details: subcutaneously 30 minutes prior to challenge at 1, 3, and 10 mg/kg; reduced from about 23; cited from earlier work
[7] = system: GABAB(1)+/- and GABAB(1)+/+ mice; details: 9.6 mg/kg, cited from earlier work

T1 sequence (Q9UBS5 15-961 limits assumed): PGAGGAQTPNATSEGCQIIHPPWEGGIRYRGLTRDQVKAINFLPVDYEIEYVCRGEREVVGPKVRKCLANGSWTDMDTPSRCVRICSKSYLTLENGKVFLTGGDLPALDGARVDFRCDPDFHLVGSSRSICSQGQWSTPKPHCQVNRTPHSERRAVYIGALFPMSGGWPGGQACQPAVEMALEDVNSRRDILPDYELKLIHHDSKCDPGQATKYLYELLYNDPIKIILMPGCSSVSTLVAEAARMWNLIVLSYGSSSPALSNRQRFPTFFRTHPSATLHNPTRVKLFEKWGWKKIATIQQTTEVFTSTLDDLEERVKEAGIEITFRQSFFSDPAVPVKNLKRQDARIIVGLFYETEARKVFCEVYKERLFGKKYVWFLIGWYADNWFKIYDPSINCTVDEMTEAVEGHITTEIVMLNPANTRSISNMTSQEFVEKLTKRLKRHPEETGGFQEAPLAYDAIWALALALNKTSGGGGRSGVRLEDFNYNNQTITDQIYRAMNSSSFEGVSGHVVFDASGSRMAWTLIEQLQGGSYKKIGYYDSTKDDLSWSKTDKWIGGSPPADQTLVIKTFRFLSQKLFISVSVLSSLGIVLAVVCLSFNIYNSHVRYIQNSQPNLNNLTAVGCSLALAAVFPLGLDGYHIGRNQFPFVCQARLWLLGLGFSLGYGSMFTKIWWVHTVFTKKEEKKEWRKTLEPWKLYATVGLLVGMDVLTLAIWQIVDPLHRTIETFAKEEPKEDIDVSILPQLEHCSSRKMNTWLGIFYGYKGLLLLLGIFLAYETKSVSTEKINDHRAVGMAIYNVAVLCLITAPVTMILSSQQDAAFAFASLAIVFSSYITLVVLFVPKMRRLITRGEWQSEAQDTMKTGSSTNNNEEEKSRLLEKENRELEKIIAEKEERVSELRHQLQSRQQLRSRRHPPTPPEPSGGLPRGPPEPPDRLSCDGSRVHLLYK
T1 sequence (O75899 42-941 partner): as the sequence (O75899 42-941 partner) above

Q: For `Cl.NC[C@H](CC(=O)O)c1ccc(Cl)c(NCc2ccncc2)c1` [Example 57, (3R)-4-Amino-3-{4-chloro-3-[(4-pyridylmethyl)amino]phenyl}butanoic acid hydrochloride], which EC50 [1] is on record?
A: < 700 nM

Q: And the IC50 [2]?
A: < 25000 nM

Q: And the “GABAB receptor agonist or partial agonist activity” value [3]?
A: agonist or partial agonist activity

Q: What about the EC50 [4] of the same compound?
A: < 100 nM

Q: For `Cl.NC[C@H](CC(=O)O)c1ccc(Cl)c(NCc2cnc[nH]2)c1` [Example 60, (3R)-4-Amino-3-{4-chloro-3-[(imidazol-5-ylmethyl)amino]phenyl}butanoic acid hydrochloride], which EC50 [1] is on record?
A: < 700 nM

Q: What about the IC50 [2] of the same compound?
A: < 25000 nM

Q: What about the “GABAB receptor agonist or partial agonist activity” value [3] of the same compound?
A: agonist or partial agonist activity

Q: What about the EC50 [4] of the same compound?
A: < 100 nM

Q: Which EC50 [1] does the source give for `Cl.NC[C@H](CC(=O)O)c1ccc(Cl)c(-c2ccc(C(=O)O)s2)c1` [Example 67, 5-{5-[(1R)-2-Amino-1-(carboxymethyl)ethyl]-2-chlorophenyl}thiophene-2-carboxylic acid hydrochloride] here?
A: < 700 nM

Q: And the IC50 [2]?
A: < 25000 nM

Q: What about the “GABAB receptor agonist or partial agonist activity” value [3] of the same compound?
A: agonist or partial agonist activity

Q: And the EC50 [4]?
A: < 100 nM

Q: For `C[C@H](N)C(=O)NC[C@H](CC(=O)O)c1ccc(Cl)c(OCc2ccncc2)c1.Cl` [Example 73, (3R)-4-((2S)-2-Aminopropanoylamino)-3-[4-chloro-3-(4-pyridylmethoxy)phenyl]butanoic acid hydrochloride], which “oral bioavailability (F %)” value [5] is on record?
A: greater than 10%

Q: With `Cl.NC(=O)CC[C@H](N)C(=O)NC[C@H](CC(=O)O)c1ccc(Cl)c(-c2ccc(C(=O)O)s2)c1` [Example 80] as the compound, how does the “oral bioavailability (F %)” value [5] read?
A: greater than 10%

Q: For `NCC(CC(=O)O)c1ccc(Cl)cc1` (centres unmarked) [baclofen], which “number of emetic episodes” value [6] is on record?
A: about 13

Q: And the hypothermia ([7]; GABAB(1)+/- and GABAB(1)+/+ but not GABAB(1)-/- mice)?
A: marked hypothermia

Q: And the “time after administration at which hypothermia reaches its minimum” value [7]?
A: 60 to 80 min
